Assay results published in PubChem BioAssay AID743341 (Broad Institute, 2014).
Results filed as inconclusive are left out.

System: C2C12 myotubes + simvastatin, MHC imaging tube length, 48 h
Assay: suppression of statin-driven myotube degradation – imaging, C2C12 myotubes, MHC immunostaining, dry powder, orthogonal assay for statin myotoxicity suppressor project, confirmation (AID 743341)

| SMILES | AC40 |
| --- | --- |
| C[C@H](CO)N1C[C@H](C)[C@H](CN(C)CC2CCCCC2)Oc2ccc(NC(=O)CCCCCC(=O)Nc3ccccc3N)cc2CC1=O | 13.2 µM |
| C[C@H]1CN([C@@H](C)CO)C(=O)Cc2cc(NC(=O)CCCCCC(=O)Nc3ccccc3N)ccc2O[C@H]1CN(C)CC1CCCCC1 | 8.03 µM |
| C[C@@H]1CN([C@@H](C)CO)C(=O)c2cccc(NC(=O)Nc3ccc4c(c3)OCO4)c2O[C@H]1CN(C)Cc1ccc(C(=O)Nc2ccccc2N)cc1 | 7.66 µM |
| C[C@@H]1CN([C@H](C)CO)C(=O)c2cc(NC(=O)Nc3cccc4ccccc34)ccc2O[C@@H]1CN(C)Cc1ccc(C(=O)Nc2ccccc2N)cc1 | 6.47 µM |
| C[C@H](CO)N1C[C@H](C)[C@@H](CN(C)Cc2ccc(C(=O)Nc3ccccc3N)cc2)Oc2ccc(NC(=O)Cc3cn(C)c4ccccc34)cc2C1=O | 10.2 µM |
| N#C[C@@H]1[C@@H](c2ccc(-c3ccc(F)cc3)cc2)[C@H](CO)N1C(=O)Cc1ccccc1 | 15 µM |
| C[C@H]1CN([C@@H](C)CO)C(=O)Cc2cc(NC(=O)CCCCCC(=O)Nc3ccccc3N)ccc2O[C@H]1CN(C)Cc1ccc(C(F)(F)F)cc1 | 10.3 µM |
| C[C@H]1CN([C@@H](C)CO)C(=O)c2cc(N(C)C)ccc2O[C@@H]1CN(C)Cc1ccc(C(=O)Nc2ccccc2N)cc1 | 1.55 µM |
| C[C@H](CO)N1C[C@H](C)[C@H](CN(C)Cc2ccc(C(=O)Nc3ccccc3N)cc2)Oc2ccc(N(C)C)cc2C1=O | 0.581 µM |
| C[C@H]1CN([C@@H](C)CO)S(=O)(=O)c2ccc(C#Cc3ccc(F)cc3)cc2O[C@@H]1CN(C)S(=O)(=O)c1cn(C)cn1 | 13 µM |
